Source: ChEMBL document CHEMBL1201862, “PubChem BioAssay data set” (2004)
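Test compounds were applied to cells in 96-well plates for 48 hours at 5 doses. At the GI50, growth is halved.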 Calls of active or inactive are those of the source. Rule as the data show it: active = GI50 up to about 1.1 µM and inactive = higher.

Assays:
Experiment in all cases: NCI anticancer screen, dose series, 48 h
TK-10 = tested on: TK-10
NCI-H226 = tested on: NCI-H226
SW-620 = tested on: SW-620
OVCAR-8 = tested on: OVCAR-8
XF498 = tested on: XF498
SK-MEL-5 = tested on: SK-MEL-5
HOP-62 = tested on: HOP-62
DMS-114 = tested on: DMS-114
HT-29 = tested on: HT-29
SR = tested on: SR
CCRF-CEM = tested on: CCRF-CEM
KM-20L2 = tested on: KM-20L2
HL-60 = tested on: HL-60
NCI-H522 = tested on: NCI-H522
KM12 = tested on: KM12
LXFL 529 = tested on: LXFL 529
DMS-273 = tested on: DMS-273
OVCAR-3 = tested on: OVCAR-3
U-251 = tested on: U-251
A498 = tested on: A498
CAKI-1 = tested on: CAKI-1
DLD-1 = tested on: DLD-1
UO-31 = tested on: UO-31
M14 = tested on: M14
786-0 = tested on: 786-0
SF-539 = tested on: SF-539
HCT-15 = tested on: HCT-15
IGROV-1 = tested on: IGROV-1
OVCAR-5 = tested on: OVCAR-5
EKVX = tested on: EKVX
Malme-3M = tested on: Malme-3M
NCI-H460 = tested on: NCI-H460
RXF 393 = tested on: RXF 393
SN12C = tested on: SN12C
HOP-92 = tested on: HOP-92
K562 = tested on: K562
SNB-19 = tested on: SNB-19
A549 = tested on: A549
LOX IMVI = tested on: LOX IMVI
SF-268 = tested on: SF-268
OVCAR-4 = tested on: OVCAR-4
SK-OV-3 = tested on: SK-OV-3
COLO 205 = tested on: COLO 205
SNB-78 = tested on: SNB-78
NCI-H23 = tested on: NCI-H23
M19-MEL = tested on: M19-MEL
RPMI-8226 = tested on: RPMI-8226
HCC 2998 = tested on: HCC 2998
UACC-257 = tested on: UACC-257
SF-295 = tested on: SF-295
MOLT-4 = tested on: MOLT-4
UACC-62 = tested on: UACC-62
SNB-75 = tested on: SNB-75
HCT-116 = tested on: HCT-116

N#CC(C#N)=C1NC(=O)CC(=O)N1
GI50 (TK-10): > 100 µM (inactive) | GI50 (NCI-H226): > 100 µM (inactive) | GI50 (SW-620): > 100 µM (inactive) | GI50 (OVCAR-8): > 100 µM (inactive) | GI50 (XF498): > 100 µM (inactive) | GI50 (SK-MEL-5): > 100 µM (inactive) | GI50 (HOP-62): > 100 µM (inactive) | GI50 (DMS-114): > 100 µM (inactive) | GI50 (HT-29): > 100 µM (inactive) | GI50 (SR): > 100 µM (inactive) | GI50 (CCRF-CEM): > 100 µM (inactive) | GI50 (KM-20L2): > 100 µM (inactive) | GI50 (HL-60): > 100 µM (inactive) | GI50 (NCI-H522): > 100 µM (inactive) | GI50 (KM12): > 100 µM (inactive) | GI50 (LXFL 529): > 100 µM (inactive) | GI50 (DMS-273): > 100 µM (inactive) | GI50 (OVCAR-3): > 100 µM (inactive) | GI50 (U-251): > 100 µM (inactive) | GI50 (A498): > 100 µM (inactive) | GI50 (CAKI-1): > 100 µM (inactive) | GI50 (DLD-1): > 100 µM (inactive) | GI50 (UO-31): > 100 µM (inactive) | GI50 (M14): > 100 µM (inactive) | GI50 (786-0): > 100 µM (inactive) | GI50 (SF-539): > 100 µM (inactive) | GI50 (HCT-15): > 100 µM | GI50 (IGROV-1): > 100 µM (inactive) | GI50 (OVCAR-5): > 100 µM (inactive) | GI50 (EKVX): > 100 µM (inactive) | GI50 (Malme-3M): > 100 µM (inactive) | GI50 (NCI-H460): > 100 µM (inactive) | GI50 (RXF 393): > 100 µM (inactive) | GI50 (SN12C): > 100 µM (inactive) | GI50 (HOP-92): > 100 µM (inactive) | GI50 (K562): > 100 µM (inactive) | GI50 (SNB-19): > 100 µM (inactive) | GI50 (A549): > 100 µM (inactive) | GI50 (LOX IMVI): > 100 µM (inactive) | GI50 (SF-268): > 100 µM (inactive) | GI50 (OVCAR-4): > 100 µM (inactive) | GI50 (SK-OV-3): > 100 µM (inactive) | GI50 (COLO 205): > 100 µM (inactive) | GI50 (SNB-78): > 100 µM (inactive) | GI50 (NCI-H23): > 100 µM (inactive) | GI50 (M19-MEL): > 100 µM (inactive) | GI50 (RPMI-8226): > 100 µM (inactive) | GI50 (HCC 2998): > 100 µM (inactive) | GI50 (UACC-257): > 100 µM (inactive) | GI50 (SF-295): > 100 µM (inactive) | GI50 (MOLT-4): > 100 µM (inactive) | GI50 (UACC-62): > 100 µM (inactive) | GI50 (SNB-75): > 100 µM (inactive) | GI50 (HCT-116): > 100 µM (inactive)
